# Data: patent EP0313908A2, “Halogen-substituted phenoxyphenylpropionic acid derivatives” (BAYER AG, priority 1987, dated 1989)
# Legend:
# [1] = test system: Unkräuter, wie z. B. Amaranthus, Chenopodium, Ipomoea, Portulak und Solanum; experiment: Post-emergence test (herbicidal action on weeds); format: in vivo; settings: post-emergence spray on test plants 5 - 15 cm high, 2000 l Wasser/ha; damage rated after three weeks against untreated control; stated in comparison with Vergleichssubstanz (A)
# Description: (§1) Post-emergence-Test Lösungsmittel: 5 Gewichtsteile Aceton Emulgator: 1 Gewichtsteil Alkylarylpolyglykolether
# (§2) Zur Herstellung einer zweckmäßigen Wirkstoffzubereitung vermischt man 1 Gewichtsteil Wirkstoff mit der angegebenen Menge Lösungsmittel, gibt die angegebene Menge Emulgator zu und verdünnt das Konzentrat mit Wasser auf die gewünschte Konzentration.
# (§3) Mit der Wirkstoffzubereitung spritzt man Testpflanzen, welch eine Höhe von 5 - 15 cm haben so, daß die jeweils gewünschten Wirkstoffmengen pro Flächeneinheit ausgebracht werden. Die Konzentration der Spritzbrühe wird so gewählt, daß in 2000 l Wasser/ha die jeweils gewünschten Wirkstoffmengen ausgebracht werden. Nach drei Wochen wird der Schädigungsgrad der Pflanzen bonitiert in % Schädigung im Vergleich zur Entwicklung der unbehandelten Kontrolle. Es bedeuten: 0 % = keine Wirkung (wie unbehandelte Kontrolle) 100 % = totale Vernichtung
# [2] = test system: Mais; settings: in vivo
# Description: as §1, §2, §3
# [3] = test system: Baumwollpflanzen; experiment: Defoliation and desiccation of the leaves of cotton; format: in vivo, Baumwolle; settings: cotton plants in the greenhouse, 5th leaf fully unfolded, sprayed dripping wet; rated after 1 week against control plants (scale 0, +, ++, +++)
# Description: Entlaubung und Austrocknung der Blätter bei Baumwolle
# Lösungsmittel: 30 Gewichtsteile Dimethylformamid Emulgator: 1 Gewichtsteil Polyoxyethylen-Sorbitan-Monolaurat
# Zur Herstellung einer zweckmäßigen Wirkstoffzubereitung vermischt man 1 Gewichtsteil Wirkstoff mit den angegebenen Mengen Lösungsmittel und Emulgator und füllt mit Wasser auf die gewünschte Konzentration auf.
# Baumwollpflanzen werden im Gewächshaus bis zur vollen Entfaltung des 5. Folgeblattes angezogen. In diesem Stadium werden die Pflanzen tropfnaß mit den Wirkstoffzubereitungen besprüht. Nach 1 Woche werden der Blattfall und das Austrocknen der Blätter im Vergleich zu den Kontrollpflanzen bonitiert. Es bedeuten: 0 kein Austrocknen der Blätter, kein Blattfall + leichtes Austrocknen der Blätter, geringer Blattfall ++ starkes Austrocknen der Blätter, starker Blattfall +++ sehr starkes Austrocknen der Blätter, sehr starker Blattfall
SMILES,Wirkung gegen Unkräuter [1],Selektivität in Mais [2],Austrocknen der Blätter [3],Blattfall [3]
"COC(=O)C(Cl)Cc1cc(Oc2c(Cl)cc(C(F)(F)F)cc2Cl)ccc1Cl (stereo not drawn) [Beispiel 1, 2-Chlor-3-[3-(2,6-dichlor-4-trifluormethyl-phenoxy)-6-chlor-phenyl]-propionsäure-methylester]",erheblich stärkere Wirkung,guter Selektivität,sehr starkes,sehr starken
"COC(=O)CCc1cc(Oc2c(Cl)cc(C(F)(F)F)cc2Cl)ccc1Cl [Beispiel 3, 3-[3-(2,6-dichlor-4-trifluormethyl-phenoxy)-6-chlor-phenyl]-propionsäuremethylester]",erheblich stärkere Wirkung,guter Selektivität,sehr starkes,sehr starken
"COC(=O)C(Br)Cc1cc(Oc2c(Cl)cc(C(F)(F)F)cc2Cl)c(Cl)cc1Cl (stereo not drawn) [Beispiel 2, 2-Brom-3-[3-(2,6-dichlor-4-trifluormethyl-phenoxy)-4,6-dichlorphenyl]-propionsäuremethylester]",erheblich stärkere Wirkung,guter Selektivität,–,–
"COC(=O)CC(Br)c1cc(Oc2c(Cl)cc(C(F)(F)F)cc2Cl)ccc1Cl (stereo not drawn) [Beispiel 4, 3-Brom-3-[3-(2,6-dichlor-4-trifluormethyl-phenoxy)-6-chlorphenyl]-propionsäuremethylester]",erheblich stärkere Wirkung,guter Selektivität,–,–
